Data as given in patent publication US8916586B2, “Anti-angiogenic compound” (University College Dublin—National University of Ireland, …, priority 2011, dated 2014).
Entries after “also recorded” stand apart in the source; their conditions may differ.

Assays:
[1] = test system: hyaloid vasculature in zebrafish; assay: Zebrafish developmental angiogenesis assay: number of primary branches of hyaloid vasculature on dissected lens; assay type: in vivo; settings: 10 μM, treated day 1-5, analysed 5 dpf
From the text: We have used the zebrafish model as an in vivo screen for chemical libraries as the small size and transparency of the zebra fish enables high-content screens in multi-well plate formats (MacRae and Peterson, 2003; Pichler et al., 2003; Peterson et al., 2004; den Hertog, 2005; Zon and Peterson, 2005). […] To identify anti-angiogenic drugs we used a transgenic line of zebrafish that expresses a fluorescent reporter (EGFP) specifically in vasculature (Tg(fli1:efgp)). This line was obtained from the Zebrafish International Resource Center. Our assay involved screening the effect of drugs in the library on the development of blood vessels in zebrafish. Specifically, we looked at the integrity of vessels developing in the eye (hyaloid vessels attached to the lens) and in the trunk.
All experiments were carried out under ethical approval granted by the UCD animal research ethics committee. Tg(fli1:EGFP) zebrafish were maintained according to standard procedures on a 14 hr light/10 hr dark cycle at 28° C. Referring to the schematic of FIG. 1A, embryos were obtained by natural spawning and developmental stages established by time and morphological criteria. A chemical library containing numerous compounds was screened (FIG. 1A). In this specific example, the chemical library contained 5000 compounds of the DIVERSet™ collection from ChemBridge Corp., USA. At 24 hours post fertilisation (hpf), 5 embryos per well were placed in […] of Embryo Medium/1% DMSO and incubated with drug at 28° C. on a 14 h light/10 h dark cycle. Larvae were euthanised, and fixed in 4% PFA at 4° C. overnight before analysis. (FIG. 1A).
Right lenses were dissected from the larvae and transferred to depression slides for observation under epi-fluorescence in the Olympus SZX16 and to cover-slip bottom Petri-dishes for confocal microscopy in a Zeiss UV510 META LSM system (20× and 40× inverted objectives). To achieve appropriate orientation, lenses were embedded in 10% methyl-cellulose and manipulated with a tungsten needle (0.5 mm diameter). Patterning of the hyaloid vessels on the treated larval lenses was compared to DMSO controls and the archetypal pattern previously described (Alvarez et al., 2007; Alvarez et al., 2009). The number of primary vessels radiating from the back of the lens (3-4 main branches at 5 dpf in controls and previously described), was counted and the average number was graphed for each drug. From screens of ˜1600 small molecules, four “hits” that inhibited the number of primary hyaloids vessels were identified (FIG. 1B).
To validate the “hits” from the library screen, dose-dependence experiments were conducted by screening the drugs in the assay described in Example 2 above but at a range of increasing concentrations between 1-10 μM. Larvae were maintained under the drug treatments at 28° C. on 14 hr light/10 hr dark cycle until 5 days post fertilisation (dpf), when they were euthanised and fixed in 4% PFA at 4° C. overnight before analysis. The average number of primary hyaloids branches was graphed for each concentration of drug. […] One of the lead compounds identified by the screen of chemical library was 11B which has the chemical name 2-[2-2-quinolinyl)vinyl]phenol and its structure shown below: […]

[2] = test system: dermal-derived normal human microvascular endothelial cells (HMVEC-d); assay: In vitro HMVEC-d tube formation assay on Matrigel; assay type: cell-based; settings: 100 nM, 20 hr
Procedure: HMVEC-d were purchased from Clonetics, San Diego, Calif., USA. Cells were maintained in complete Endothelial Cell Medium (Clonetics® EGM®-2-MV BulletKit®) containing 500 ml of Endothelial Cell Basal Medium-2 and supplemented with hEGF, 0.5 ml; Hydrocortisone, 0.2 ml; GA-1000, 0.5 ml; FBS, 25 ml; VEGF, 0.5 ml; hFGF-B, 2.0 ml; R3-IGF-1, 0.5 ml; Ascorbic Acid, 0.5 ml in a 37° C. humidified atmosphere of 5% CO2/95% air. HMVEC-d were used for experiments between passages 4-8.
Matrigel (Becton Dickenson) basement membrane matrix was used to examine HMVEC-d tube formation. Matrigel (50 μl) was plated in 96 well culture plate wells after thawing on ice and allowed to polymerise at 37° C. 5% CO2 humidified atmosphere for 1 hr. HMVEC-d were removed from culture, trypsinised, and resuspended in full strength EGM growth medium. Cells were seeded at a density of 50×10^4 cells/cm^2 and incubated for 20 hr at 37° C. 5% CO2 humidified atmosphere. Endothelial cell tubule formation was assessed using phase contrast microscopy and photographed. A connecting branch between two discrete ECs was counted as one tube. The tube analysis was determined from 3 sequential fields (magnification×10) focusing on the surface of the matrigel.

[3] = test system: mouse model of oxygen induced retinopathy (OIR); assay: Mouse oxygen-induced retinopathy (OIR) model of ocular neovascularisation; assay type: in vivo; settings: 2 μg/μl, postnatal day 12-17, intravitreal
Procedure: To assess the ability of compound 11B to inhibit ocular neovascularisation in mammalian eyes, 11B was tested in the mouse model of oxygen induced retinopathy (OIR). […] 11B was injected intravitreally into a mouse model of oxygen-induced retinopathy (OIR). The OIR model was generated by placing postnatal day 7 (P7) mouse pups into hyperoxia (75% oxygen) for 5 days and then removing them to normoxia (21%) on postnatal day 12 (P12). The hyperoxic (high oxygen) environment causes retinal blood vessels to regress between P7 and P12. The normoxic environment on P12 is a relatively hypoxic (low oxygen) environment for the mice and causes the growth of new blood vessels (angiogenesis). For all samples, eyes were enucleated, fixed, flat mounted and then stained with an isolectin antibody to visualise the blood vessels. Blood vessels were quantified and those treated with lead compounds compared to controls.

COc1cc2c(cc1OC)C(c1ccc3c(c1)OCO3)N(C)CC2 (racemic) [11F-522, 1-(1,3-benzodioxol-5-yl)-6,7-dimethoxy-2-methyl-1,2,3,4-tetrahydroisoquinoline]
number of primary branches of hyaloid vasculature [1]: inhibited developmental angiogenesis; also recorded: significant (p<0.05) reduction; also recorded: significant inhibition; also recorded: significantly reduce

COc1cc2c(cc1OC)[C@@H](c1ccc3c(c1)OCO3)N(C)CC2 (single isomer, unassigned) [11F-522R]
number of primary branches of hyaloid vasculature [1]: significant (p<0.05) reduction; also recorded: significantly reduce

COc1cc2c(cc1OC)[C@H](c1ccc3c(c1)OCO3)N(C)CC2 (single isomer, unassigned) [11F-522S]
number of primary branches of hyaloid vasculature [1]: did not reduce

Oc1ccc(/C=C\c2ccnc3ccccc23)cc1 [11B-799, 4-[2-(4-quinolinyl)vinyl]phenol]
number of primary branches of hyaloid vasculature [1]: inhibits developmental angiogenesis; also recorded: significant inhibition

Avastin: clinically used anti-angiogenic monoclonal antibody, anti-VEGF [reference compound]
inhibition of HMVEC-d tubule formation [2]: significantly inhibited
avascular area of the retina in treated eyes [3]: ~22%
